Measurements: patent US10626368B2, “Method for inducing cerebral cortex neurons” (KYOTO UNIVERSITY, priority 2015, dated 2020)

Experiments:
iPS cells (836B1) = experiment: Immunostaining for CoupTF1 and Ctip2 on day 46, suspension culture with various WNT inhibitors (Example 4); format: cell-based, human; details: 50 nM C59, 100 nM LGK-974, 1 μM ICG-001, day 46; C59 and LGK-974 compared with each other
Protocol: On the day before induction of differentiation, in order to separate the iPS cells (836B1), which had been cultured in a culture medium to which 10 μM Y-27632 had been added, from the SNL feeder cells, the SNL cells were removed with CTK and the remaining cells were then dissociated using Accumax. The cells were transferred on a 96-well plate (Lipidure-coat 96-well plate) in an amount of 9×10^3 cells per well. Thereafter, the cells were subjected to a suspension culture in DMEM/F12 comprising 50 μM Y-27632, 10 μM SB43152, 10 ng/ml bFGF, various types of Wnt inhibitors (50 nM C59, 100 nM LGK-974, or 1 μM ICG-001 (Cellagen Technology)), 100 nM LDN193189, 10% KSR, 0.1 mM MEM non-essential amino acid, 0.1 mM 2-mercaptoethanol, and 2 mM L-Gln (initiation of differentiation induction, day 0). […] Three days later, the medium was exchanged with DMEM/F12 comprising various types of WNT inhibitors (C59, LGK-974, or ICG-001), 100 nM LDN193189, 10% KSR, 0.1 mM MEM non-essential amino acid, 0.1 mM 2-mercaptoethanol, and 2 mM L-Gln (day 6). Thereafter, the medium was exchanged with a fresh one of the same type every 3 days, and the culture was carried out for 18 days after the initiation of differentiation induction (day 18).
A half of the medium on day 18 was removed by aspiration, and thereafter, Neurobasal, to which B27, 2 mM L-Gln, and 10 units/ml penicillin and streptomycin had been added, was added in the same amount as the removed medium to the remaining medium. Likewise, a half amount of the medium was exchanged on day 21. On day 24, the cells were transferred on a petri dish, and thereafter, a half of the medium was exchanged every 3 or 4 days. On day 46, the obtained cells were immunostained using antibodies against CoupTF1 and Ctip2. […] From the aforementioned results, it was confirmed that nerve cells existing in the desired corticocerebral motor area can be induced even by utilizing the WNT inhibitor LGK-974 having a similar action to C59.

[1] = system: ES cells or the iPS cells; experiment: Immunostaining for CoupTF1 and Ctip2 after 46 days of cerebral cortex differentiation; format: cell-based, human; details: 2 nM C59 as Wnt inhibitor, 46 days; compared with 500 ng/ml DKK1, 500 nM XAV
Source text: Human ES cells (KhES-1) were obtained from Institute for Frontier Medical Sciences, Kyoto University (Suemori H, et al. Biochem Biophys Res Commun. 345: 926-32, 2006). The human iPS cells 404C2 are cells obtained by introducing Oct3/4, Sox2, Klf4, L-MYC, LIN28 and p53shRNA into human fibroblasts, using an episomal vector, and these cells were obtained from Professor Yamanaka et al. in Kyoto University (Okita, et al, Nat Methods. 8: 409-412, 2011). The human iPS cells 836B1 are cells obtained by introducing Oct3/4, Sox2, Klf4, L-MYC, LIN28, GLIS1 and p53shRNA into human fibroblasts, using an episomal vector, and these cells were obtained from Professor Yamanaka et al. in Kyoto University. The ES cells and the iPS cells were cultured on SNL cells (Takahashi K, et al, Cell. 131: 861-872, 2007).
On the day before induction of differentiation, in order to separate the ES cells or the iPS cells, which had been cultured in a culture medium to which 10 μM Y-27632 (WAKO) had been added, from the SNL feeder cells, the SNL cells were removed with CTK and the remaining cells were then dissociated using Accumax (ICT). The cells were transferred on a 96-well plate (Lipidure-coat 96-well plate (NOF Corporation)) in an amount of 9×10^3 cells per well. Thereafter, the cells were subjected to a suspension culture in DMEM/F12 (WAKO) comprising 50 μM Y-27632 (WAKO), 10 μM SB43152 (Sigma), 10 ng/ml bFGF (Invitrogen), various types of Wnt inhibitors (DKK1 (R & D, 500 ng/ml), C59 (Cellagen Technology, 2-10 nM), XAV (Stemgent, 500 nM-2 μM) or IWP4 (Stemgent, 500 nM-2.5 μM)), LDN193189 (Stemgent), KSR (Invitrogen), 0.1 mM MEM non-essential amino acid (Invitrogen), 0.1 mM 2-mercaptoethanol (WAKO), and 2 mM L-Gln (Invitrogen) (initiation of differentiation induction, day 0). […]
The concentration of LDN193189 used in the above-described induction method was examined. […] Furthermore, the expression levels of the CoupTF1 and Sfrp1 genes were measured according to a qPCR method (FIG. 5C). […]

Compound: Cc1cc(-c2ccc(CC(=O)Nc3ccc(-c4cccnc4)cc3)cc2)ccn1 [C59]
- efficiency of inducing CoupTF1-negative Ctip2-positive cells (iPS cells (836B1)): not found a large difference
- CoupTF1-negative Ctip2-positive cerebral cortex neurons induced [1]: a large number
